For orientation: IC50 means the concentration at which inhibition is half-maximal.

Some results are limits rather than exact numbers.

For one test, the system named is H1299 cells. Kind of test: in vitro antiproliferation assay, H1299 (lung). The format is cell-based. On the procedure:
(§1) The IC50 values of various compounds against a various different tumor cell lines were determined using standard in vitro antiproliferation assays. The tumor cell lines tested were as follows: A549 (lung); H1299 (lung), ACHN (kidney/p53 wt), CAKI (renal cell carcinoma), NCI-H460 (lung); HCT116 (colon/p53w0; HELA (cervix/p53 wt), HUH7 (liver/p53 wt), HUVEC (primary endothelial), LNCAP (prostate), HT-29 (colon); MCF-7 (breast); MCF-7 (breast/ER positive), MDA MB435S (breast); MDA MB231 (breast/ER negative), DU145 (prostate); BxPC-3 (pancreatic); SKOV-3 (ovarian); HepG2 (hepatic), NDHF primary normal human dermal fibroblast), SKMEL28 (breast/p53mut), SKMEL5 (breast/p53 wt), U20S (bone) and PC3 (prostate). […] A blank indicates the specified compound was not tested against the specified cell line.

For another test, the system named is A549 cells. Kind of test: in vitro antiproliferation assay, A549 (lung). The test is classed as cell-based. Here is the method:
as §1

[1] abbreviates: in vitro antiproliferation, H1299 (lung) cells, Table 4, compounds with no designated stereochemistry tested as racemate.
The mark [2] stands for this setting: in vitro antiproliferation, A549 (lung) cells, Table 4, compounds with no designated stereochemistry tested as racemate.
[3] abbreviates: IC50 class against H1299 (lung) tumor cells.
Setting [4] is: IC50 class against A549 (lung) tumor cells.
The mark [5] stands for this setting: A549 (lung) cells, antiproliferation.

As for `O=C1Nc2cc(Nc3nc(Nc4cccc(-c5ncco5)c4)ncc3F)ccc2OC1CCO` (racemic) [compound 237], the 50% inhibitory concentration (IC50) in the test with H1299 cells (setting [1]) and with A549 cells (setting [2]) was not above 20 µM throughout.
`O=C1Nc2cc(Nc3nc(Nc4cccc(-c5cnco5)c4)ncc3F)ccc2OC1CCO` (racemic) [compound 238]: the IC50 with H1299 cells (setting [1]) and with A549 cells (setting [2]) was not above 20 µM throughout.
As for `COc1cc(Nc2ncc(F)c(Nc3ccc4c(c3)NC(=O)C(C)S4(=O)=O)n2)cc(OC)c1` (racemic) [compound 250], the IC50 in the test on H1299 cells (setting [1]) and with A549 cells (setting [2]) was not above 20 µM each time.
Take `Cc1cc(C)cc(Nc2ncc(F)c(Nc3ccc4c(c3)NC(=O)C(C)S4(=O)=O)n2)c1` (racemic) [compound 251]: the concentration for half-maximal inhibition (IC50) in the test on H1299 cells (setting [1]) and in the test with A549 cells (setting [2]) was not above 20 µM each time.
Take `COc1ccc(Nc2ncc(F)c(Nc3ccc4c(c3)NC(=O)C(C)S4)n2)cc1F` (racemic) [compound 288]: the half-maximal inhibitory concentration (IC50) in the test with H1299 cells (setting [1]) and in the test on A549 cells (setting [2]) was not above 20 µM each time.
Turning to `CNC(=O)COc1cccc(Nc2ncc(F)c(NC3CCC3)n2)c1` [compound 109], the IC50 with H1299 cells (setting [3]) and in the test on A549 cells (setting [4]) was not above 20 µM in each case.
With `CCOC(=O)N1CCN(c2ccc(Nc3ncc(F)c(N(C)C4CCC4)n3)cc2)CC1` [compound 126], the half-inhibitory concentration (IC50) in the test on H1299 cells (setting [3]) and in the test on A549 cells (setting [4]) was not above 20 µM each time.
Take `CN(c1nc(Nc2cccc(N3CCOCC3)c2)ncc1F)C1CCC1` [compound 127]: the IC50 in the test on H1299 cells (setting [3]) and in the test on A549 cells (setting [4]) was not above 20 µM in each case.
Regarding `CC(=O)N1CCN(c2cccc(Nc3ncc(F)c(N(C)C4CCC4)n3)c2)CC1` [compound 128], the IC50 in the test with H1299 cells (setting [3]) and in the test with A549 cells (setting [4]) was not above 20 µM each time.
For `CN1CCN(c2cccc(Nc3ncc(F)c(N(C)C4CCC4)n3)c2)CC1` [compound 129], the IC50 with H1299 cells (setting [3]) and in the test on A549 cells (setting [4]) was not above 20 µM throughout.
`CCOC(=O)N1CCN(c2cccc(Nc3ncc(F)c(N(C)C4CCC4)n3)c2)CC1` [compound 130]: the IC50 in the test with H1299 cells (setting [3]) and in the test on A549 cells (setting [4]) was not above 20 µM in each case.
In the case of `O=C(Nc1ccc(Nc2ncc(F)c(NC3CCC3)n2)cc1)c1ccccc1` [compound 131], the IC50 in the test on H1299 cells (setting [3]) and in the test with A549 cells (setting [4]) was not above 20 µM each time.
Regarding `Fc1cnc(Nc2ccc(N3CCOCC3)cc2)nc1NC1CCC1` [compound 132], the IC50 in the test on H1299 cells (setting [3]) and with A549 cells (setting [4]) was not above 20 µM each time.
In the case of `CC(=O)N1CCN(c2ccc(Nc3ncc(F)c(NC4CCCC4)n3)cc2)CC1` [compound 133], the IC50 with H1299 cells (setting [3]) and in the test with A549 cells (setting [4]) was not above 20 µM each time.
Take `CN1CCN(c2ccc(Nc3ncc(F)c(NC4CCCC4)n3)cc2)CC1` [compound 134]: the IC50 in the test with H1299 cells (setting [3]) and in the test with A549 cells (setting [4]) was not above 20 µM each time.
On to `Fc1cnc(Nc2cccc(N3CCOCC3)c2)nc1NC1CCCC1` [compound 135], for which the IC50 in the test on H1299 cells (setting [3]) and in the test on A549 cells (setting [4]) was not above 20 µM throughout.
Regarding `CC(=O)N1CCN(c2cccc(Nc3ncc(F)c(NC4CCCC4)n3)c2)CC1` [compound 136], the IC50 in the test on H1299 cells (setting [3]) and with A549 cells (setting [4]) was not above 20 µM in each case.
For `CN1CCN(c2cccc(Nc3ncc(F)c(NC4CCCC4)n3)c2)CC1` [compound 137], the IC50 in the test with H1299 cells (setting [3]) and with A549 cells (setting [4]) was not above 20 µM throughout.
`CC(=O)N(C)c1ccc(Nc2ncc(F)c(NC3CCCCC3)n2)cc1` [compound 150]: the 50% inhibitory concentration (IC50) with H1299 cells (setting [3]) and with A549 cells (setting [4]) was not above 20 µM in each case.
For the molecule `CN1CCN(c2ccc(Nc3ncc(F)c(NC4CCCCC4)n3)cc2Cl)CC1` [compound 153], the concentration for half-maximal inhibition (IC50) in the test on H1299 cells (setting [3]) and in the test on A549 cells (setting [4]) was not above 20 µM in each case.
In the case of `CC(=O)N1CCN(c2ccc(Nc3ncc(F)c(NC4CCC4)n3)cc2)CC1` [compound 154], the IC50 in the test with H1299 cells (setting [3]) and in the test on A549 cells (setting [4]) was not above 20 µM throughout.
As to `CN1CCN(c2ccc(Nc3ncc(F)c(NC4CCCCC4)n3)cc2)CC1` [compound 155], the IC50 with H1299 cells (setting [3]) and in the test with A549 cells (setting [4]) was not above 20 µM each time.
For `Cc1cc(Nc2ncc(F)c(NC3CCC3)n2)ccc1N1CCN(C)CC1` [compound 166], the IC50 with H1299 cells (setting [3]) and with A549 cells (setting [4]) was not above 20 µM throughout.
As for `CCN1CCN(c2ccc(Nc3ncc(F)c(NC4CCC4)n3)cn2)CC1` [compound 167], the IC50 in the test with H1299 cells (setting [3]) and in the test on A549 cells (setting [4]) was not above 20 µM each time.
In the test with H1299 cells (setting [1]), `Cc1cc(C)cc(Nc2ncc(F)c(Nc3ccc4c(c3)NC(=O)C(C)O4)n2)c1` (stereo not drawn) [compound 230] came in with an IC50 not above 20 µM.
As to `COc1cc(Nc2ncc(F)c(Nc3cc(OC)cc(OC)c3)n2)cc(OC)c1` [compound 840], the IC50 in the test with H1299 cells (H1299 (lung) cells, in vitro antiproliferation) is not above 20 µM.
The molecule `Oc1c(Cl)cc(Nc2ncc(F)c(Nc3cc(Cl)c(O)c(Cl)c3)n2)cc1Cl` [compound 941] came in with a half-inhibitory concentration (IC50) in the test on A549 cells (setting [5]) of more than 20 µM.
Still for that read-out and setting: the value for `Cc1cc(Nc2ncc(F)c(Nc3cccc(O)c3)n2)cc(Cl)c1O` [compound 943] was not above 20 µM.
The same measure, in the same setting: under `CC(C)(C)c1cccc(Nc2ncc(F)c(Nc3cccc(O)c3)n2)c1` [compound 951] stands more than 20 µM; under `COc1ccc(Nc2nc(Nc3cccc(C(C)(C)C)c3)ncc2F)cc1OC` [compound 953], more than 20 µM; under `CCOc1cccc(Nc2ncc(F)c(Nc3cccc(C(C)C)c3)n2)c1` [compound 964], more than 20 µM.
Still for that read-out and setting: the value for `CNC(=O)COc1cccc(Nc2ncc(F)c(Nc3cccc(C(C)C)c3)n2)c1` [compound 965] was more than 20 µM; that for `CC(C)c1cccc(Nc2nc(Nc3cccc(OCCO)c3)ncc2F)c1` [compound 966] was not above 20 µM; that for `OCCOc1cccc(Nc2ncc(F)c(Nc3ccc(CO)c(CO)c3)n2)c1` [compound 967] was more than 20 µM.
Molecule `NC(=O)COc1ccc(Nc2ncc(F)c(Nc3ccc(OCC(N)=O)cc3)n2)cc1` [compound 971] gave an IC50 in the test on A549 cells (setting [5]) of more than 20 µM.
Consider `COC(=O)COc1ccc(Nc2nc(Nc3ccc(OCC(N)=O)cc3)ncc2F)cc1` [compound 973], for which, in the test with A549 cells (setting [5]), the IC50 is more than 20 µM.
On the same count and under the same terms, under `COC(=O)COc1cccc(Nc2ncc(F)c(Nc3cccc(O)c3)n2)c1` [compound 976] stands more than 20 µM.
The same measure, in the same setting: under `COC(=O)COc1cccc(Nc2ncc(F)c(Nc3ccc(OC(C)C)cc3)n2)c1` [compound 977] stands more than 20 µM; under `Oc1ccc(Nc2ncc(F)c(Nc3ccc(O)c(C(F)(F)F)c3)n2)cc1C(F)(F)F` [compound 996], less than 20 µM; under `Cc1cccc(Nc2ncc(F)c(Nc3cccc(C)c3)n2)c1` [compound 997], not above 20 µM.
On to `Cc1ccc(Nc2ncc(F)c(Nc3ccc(C)cc3)n2)cc1` [compound 998], for which the IC50 with A549 cells (setting [5]) is more than 20 µM.
On the same count and under the same terms, under `CNC(=O)COc1cccc(Nc2ncc(F)c(Nc3ccc(OCCC(=O)OC)cc3)n2)c1` [compound 1002] stands more than 20 µM.
Still for that read-out and setting: the value for `CCOC(=O)CCOc1ccc(Nc2nc(Nc3cccc(OCC(=O)NC)c3)ncc2F)cc1` [compound 1003] was more than 20 µM; that for `CNC(=O)COc1cccc(Nc2ncc(F)c(Nc3ccc(O)cc3)n2)c1` [compound 1004] was more than 20 µM.
Molecule `C=CCNc1ncc(F)c(Nc2ccc3c(c2)OCCO3)n1` [compound 1037] came in with an IC50 with A549 cells (setting [4]) of more than 20 µM.
On the same count and under the same terms, the value for `COc1ccc(Nc2ncc(F)c(Nc3ccc4c(c3)OCCO4)n2)c(OC)c1` [compound 1045] was more than 20 µM.
`CC(C)(CC1CCC1)n1ncc2ccc(Nc3ncc(F)c(Nc4ccc(Cl)c(Cl)c4)n3)cc21` [compound 1103] registered a concentration for half-maximal inhibition (IC50) in the test with H1299 cells (H1299 (lung) cells) of more than 20 µM.
As for `Cn1nc(-c2ccccc2)cc1Nc1nc(Nc2cccc(-c3ncco3)c2)ncc1F` [compound 1161], the IC50 in the test on A549 cells (Homo sapiens, A549 (lung) cells) was not above 20 µM.
